Results reported in PubChem BioAssay (NCI).
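These data come from cells grown in 96-well plates and exposed to compound for 48 hours at five concentrations. At the TGI there is no net growth.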

Columns and labels:
Assay in all cases: inhibition of tumour cell growth, NCI panel, 48 h
SK-MEL-5 melanoma = test system: SK-MEL-5 melanoma
SK-MEL-2 melanoma = test system: SK-MEL-2 melanoma
UACC-257 melanoma = test system: UACC-257 melanoma
K-562 leukemia = test system: K-562 leukemia
IGROV1 ovarian = test system: IGROV1 ovarian
MALME-3M melanoma = test system: MALME-3M melanoma
NCI-H226 lung = test system: NCI-H226 lung
EKVX NSCLC = test system: EKVX NSCLC
SF-295 CNS = test system: SF-295 CNS
NCI-H460 lung = test system: NCI-H460 lung
NCI-H23 lung = test system: NCI-H23 lung
SK-MEL-28 melanoma = test system: SK-MEL-28 melanoma
SK-OV-3 ovarian = test system: SK-OV-3 ovarian
HOP-62 NSCLC = test system: HOP-62 NSCLC
NCI/ADR-RES ovarian = test system: NCI/ADR-RES ovarian
DU-145 prostate = test system: DU-145 prostate
MDA-MB-435 = test system: MDA-MB-435
BT-549 breast = test system: BT-549 breast
MCF7 breast = test system: MCF7 breast

CC#CC#C/C=C1\C=CC2(OC=CC2O)O1 (stereo not drawn)
TGI (SK-MEL-5 melanoma): > 23.3 µM
TGI (SK-MEL-2 melanoma): > 23.3 µM
TGI (UACC-257 melanoma): > 23.3 µM
TGI (K-562 leukemia): > 23.3 µM
TGI (IGROV1 ovarian): > 23.3 µM
TGI (MALME-3M melanoma): > 23.3 µM
TGI (NCI-H226 lung): > 23.3 µM
TGI (EKVX NSCLC): > 16.7 µM
TGI (SF-295 CNS): > 23.3 µM
TGI (NCI-H460 lung): > 23.3 µM
TGI (NCI-H23 lung): > 23.3 µM
TGI (SK-MEL-28 melanoma): > 23.3 µM
TGI (SK-OV-3 ovarian): > 23.3 µM
TGI (HOP-62 NSCLC): > 23.3 µM

CC(=O)OCC1OC(O[C@H]2C=C[C@@H](C(=O)OCc3ccccc3)n3c(=O)n(-c4ccccc4)c(=O)n32)C(OC(C)=O)C(OC(C)=O)C1OC(C)=O (stereo partly drawn)
TGI (SK-MEL-5 melanoma): 5.66 µM
TGI (SK-MEL-2 melanoma): 10.1 µM
TGI (UACC-257 melanoma): 3.73 µM
TGI (K-562 leukemia): 8.72 µM
TGI (NCI/ADR-RES ovarian): > 100 µM
TGI (DU-145 prostate): 8.47 µM
TGI (IGROV1 ovarian): 6.13 µM
TGI (NCI-H226 lung): 12.5 µM
TGI (EKVX NSCLC): 3.9 µM
TGI (SF-295 CNS): 25.3 µM
TGI (NCI-H460 lung): 3.05 µM
TGI (NCI-H23 lung): 9.02 µM
TGI (MDA-MB-435): 4.45 µM
TGI (BT-549 breast): 3.29 µM
TGI (SK-MEL-28 melanoma): 5.28 µM
TGI (SK-OV-3 ovarian): 33.6 µM

COc1cccc(/C=N/[N-]C(N)=O)c1[O-].[Co+2].[OH3+].c1ccncc1
TGI (SK-MEL-5 melanoma): > 100 µM
TGI (SK-MEL-2 melanoma): > 100 µM
TGI (UACC-257 melanoma): > 100 µM
TGI (IGROV1 ovarian): > 100 µM
TGI (MALME-3M melanoma): > 100 µM
TGI (NCI-H226 lung): > 100 µM
TGI (EKVX NSCLC): > 100 µM
TGI (SF-295 CNS): > 100 µM
TGI (NCI-H460 lung): > 100 µM
TGI (NCI-H23 lung): > 100 µM
TGI (SK-MEL-28 melanoma): > 100 µM
TGI (SK-OV-3 ovarian): > 100 µM
TGI (HOP-62 NSCLC): > 100 µM

NC1NCCC(=O)N1CCc1c[nH]c2ccccc12 (stereo not drawn)
TGI (SK-MEL-5 melanoma): 30.8 µM
TGI (SK-MEL-2 melanoma): 35.5 µM
TGI (UACC-257 melanoma): 32.1 µM
TGI (K-562 leukemia): 51 µM
TGI (NCI/ADR-RES ovarian): 69.4 µM
TGI (DU-145 prostate): 63 µM
TGI (IGROV1 ovarian): 43.1 µM
TGI (MALME-3M melanoma): 40.1 µM
TGI (NCI-H226 lung): 66.3 µM
TGI (EKVX NSCLC): 75.5 µM
TGI (MCF7 breast): 29.2 µM
TGI (SF-295 CNS): 64.6 µM
TGI (NCI-H460 lung): 31.2 µM
TGI (NCI-H23 lung): 38.6 µM
TGI (MDA-MB-435): 30.7 µM
TGI (SK-MEL-28 melanoma): 34.9 µM
TGI (SK-OV-3 ovarian): > 100 µM
TGI (HOP-62 NSCLC): 43.2 µM

COc1cc(C(c2ccc3c(c2)OCO3)C2SCCCS2)cc(OC)c1OC (stereo not drawn)
TGI (SK-MEL-5 melanoma): 9.21 µM
TGI (SK-MEL-2 melanoma): > 100 µM
TGI (UACC-257 melanoma): > 100 µM
TGI (K-562 leukemia): 4.73 µM
TGI (NCI/ADR-RES ovarian): 6.11 µM
TGI (DU-145 prostate): 8.59 µM
TGI (IGROV1 ovarian): 8.17 µM
TGI (MALME-3M melanoma): > 100 µM
TGI (NCI-H226 lung): 7.11 µM
TGI (EKVX NSCLC): 19.6 µM
TGI (MCF7 breast): 10.1 µM
TGI (SF-295 CNS): 4.66 µM
TGI (NCI-H460 lung): 2.92 µM
TGI (NCI-H23 lung): 51.8 µM
TGI (BT-549 breast): > 100 µM
TGI (SK-MEL-28 melanoma): > 100 µM
TGI (SK-OV-3 ovarian): > 100 µM
TGI (HOP-62 NSCLC): > 100 µM

CN(C)NC1=NS(=O)(=O)c2cc3c(=O)n(C)[nH]c3cc2S1
TGI (SK-MEL-5 melanoma): > 10 µM
TGI (SK-MEL-2 melanoma): > 10 µM
TGI (UACC-257 melanoma): > 10 µM
TGI (K-562 leukemia): > 10 µM
TGI (NCI/ADR-RES ovarian): > 10 µM
TGI (DU-145 prostate): > 10 µM
TGI (IGROV1 ovarian): > 10 µM
TGI (MALME-3M melanoma): > 10 µM
TGI (NCI-H226 lung): > 10 µM
TGI (EKVX NSCLC): > 10 µM
TGI (MCF7 breast): > 10 µM
TGI (SF-295 CNS): > 10 µM
TGI (NCI-H460 lung): > 10 µM
TGI (NCI-H23 lung): > 10 µM
TGI (BT-549 breast): > 10 µM
TGI (SK-MEL-28 melanoma): > 10 µM
TGI (SK-OV-3 ovarian): > 10 µM
TGI (HOP-62 NSCLC): > 10 µM

COC(=O)C1=CCC2c3[nH]c4ccccc4c3CCN2C1 (stereo not drawn)
TGI (SK-MEL-5 melanoma): > 354 µM
TGI (SK-MEL-2 melanoma): > 354 µM
TGI (UACC-257 melanoma): > 354 µM
TGI (K-562 leukemia): > 354 µM
TGI (IGROV1 ovarian): > 354 µM
TGI (MALME-3M melanoma): > 354 µM
TGI (NCI-H226 lung): > 354 µM
TGI (EKVX NSCLC): > 354 µM
TGI (SF-295 CNS): > 354 µM
TGI (NCI-H460 lung): > 354 µM
TGI (NCI-H23 lung): > 354 µM
TGI (SK-MEL-28 melanoma): > 354 µM
TGI (SK-OV-3 ovarian): > 354 µM
TGI (HOP-62 NSCLC): > 354 µM

S=C1NNC2(C(=S)N1)c1ccccc1-c1ccccc12
TGI (SK-MEL-5 melanoma): > 10 µM
TGI (UACC-257 melanoma): > 10 µM
TGI (K-562 leukemia): > 10 µM
TGI (NCI/ADR-RES ovarian): > 10 µM
TGI (DU-145 prostate): > 10 µM
TGI (IGROV1 ovarian): > 10 µM
TGI (MALME-3M melanoma): > 10 µM
TGI (NCI-H226 lung): > 10 µM
TGI (EKVX NSCLC): > 10 µM
TGI (MCF7 breast): > 10 µM
TGI (NCI-H460 lung): > 10 µM
TGI (NCI-H23 lung): > 10 µM
TGI (BT-549 breast): > 10 µM
TGI (SK-OV-3 ovarian): > 10 µM
TGI (HOP-62 NSCLC): > 10 µM

C[C@@H](c1ccccc1)N1CO[C@@]2(C#Cc3ccc4c(c3)OCO4)CCC[C@@H]12
TGI (SK-MEL-5 melanoma): 25.8 µM
TGI (SK-MEL-2 melanoma): 34.3 µM
TGI (UACC-257 melanoma): 38.2 µM
TGI (K-562 leukemia): 96.2 µM
TGI (NCI/ADR-RES ovarian): 30.8 µM
TGI (DU-145 prostate): 29.7 µM
TGI (IGROV1 ovarian): 22.9 µM
TGI (NCI-H226 lung): 38.6 µM
TGI (EKVX NSCLC): 52.6 µM
TGI (MCF7 breast): > 100 µM
TGI (SF-295 CNS): 28.1 µM
TGI (NCI-H460 lung): 26 µM
TGI (NCI-H23 lung): 28.8 µM
TGI (MDA-MB-435): 28.2 µM
TGI (SK-MEL-28 melanoma): 39 µM
TGI (SK-OV-3 ovarian): 34.5 µM
TGI (HOP-62 NSCLC): 29.3 µM

C/C(CCN(C)C)=N\OC(=O)c1ccccc1
TGI (SK-MEL-5 melanoma): > 100 µM
TGI (SK-MEL-2 melanoma): > 100 µM
TGI (UACC-257 melanoma): > 100 µM
TGI (K-562 leukemia): > 100 µM
TGI (IGROV1 ovarian): > 100 µM
TGI (MALME-3M melanoma): > 100 µM
TGI (NCI-H226 lung): > 100 µM
TGI (EKVX NSCLC): > 100 µM
TGI (SF-295 CNS): > 100 µM
TGI (NCI-H460 lung): > 100 µM
TGI (NCI-H23 lung): > 100 µM
TGI (SK-MEL-28 melanoma): > 100 µM
TGI (SK-OV-3 ovarian): > 100 µM
TGI (HOP-62 NSCLC): > 100 µM

Cc1cc(N=Cc2c(CO)cnc(C)c2O)c(N=Cc2c(CO)cnc(C)c2O)cc1C
TGI (SK-MEL-5 melanoma): > 100 µM
TGI (UACC-257 melanoma): > 100 µM
TGI (K-562 leukemia): > 100 µM
TGI (NCI/ADR-RES ovarian): > 100 µM
TGI (DU-145 prostate): > 100 µM
TGI (IGROV1 ovarian): > 100 µM
TGI (MALME-3M melanoma): > 100 µM
TGI (NCI-H226 lung): > 100 µM
TGI (EKVX NSCLC): > 100 µM
TGI (MCF7 breast): > 100 µM
TGI (SF-295 CNS): > 100 µM
TGI (NCI-H460 lung): > 100 µM
TGI (NCI-H23 lung): > 100 µM
TGI (MDA-MB-435): > 100 µM
TGI (SK-MEL-28 melanoma): > 100 µM
TGI (SK-OV-3 ovarian): > 100 µM
TGI (HOP-62 NSCLC): > 100 µM

CC1CCc2c(sc3ncnc(N/N=C/c4ccc(Cl)cc4)c23)C1 (stereo not drawn)
TGI (SK-MEL-5 melanoma): 37.2 µM
TGI (SK-MEL-2 melanoma): > 100 µM
TGI (UACC-257 melanoma): 70.3 µM
TGI (K-562 leukemia): 48.1 µM
TGI (IGROV1 ovarian): > 100 µM
TGI (MALME-3M melanoma): > 100 µM
TGI (NCI-H226 lung): 44.4 µM
TGI (EKVX NSCLC): 81.6 µM
TGI (SF-295 CNS): 75.5 µM
TGI (NCI-H460 lung): > 100 µM
TGI (NCI-H23 lung): > 100 µM
TGI (SK-MEL-28 melanoma): > 100 µM
TGI (SK-OV-3 ovarian): > 100 µM
TGI (HOP-62 NSCLC): > 100 µM

C=CCOCn1cnc2c(=O)[nH]c(N)nc21
TGI (SK-MEL-5 melanoma): > 100 µM
TGI (SK-MEL-2 melanoma): > 100 µM
TGI (K-562 leukemia): > 100 µM
TGI (NCI/ADR-RES ovarian): > 100 µM
TGI (DU-145 prostate): > 100 µM
TGI (IGROV1 ovarian): > 100 µM
TGI (MALME-3M melanoma): > 100 µM
TGI (NCI-H226 lung): > 100 µM
TGI (EKVX NSCLC): > 100 µM
TGI (MCF7 breast): > 100 µM
TGI (SF-295 CNS): > 100 µM
TGI (NCI-H460 lung): > 100 µM
TGI (NCI-H23 lung): > 100 µM
TGI (MDA-MB-435): > 100 µM
TGI (SK-MEL-28 melanoma): > 100 µM
TGI (SK-OV-3 ovarian): > 100 µM
TGI (HOP-62 NSCLC): > 100 µM

CC(C)[Si](Oc1ccc(CC2N(C(=O)c3ccc([N+](=O)[O-])cc3)C(CCc3ccccc3)CC2(C)C=O)cc1)(C(C)C)C(C)C (stereo not drawn)
TGI (SK-MEL-2 melanoma): > 100 µM
TGI (UACC-257 melanoma): > 100 µM
TGI (DU-145 prostate): > 100 µM
TGI (IGROV1 ovarian): > 100 µM
TGI (MALME-3M melanoma): > 100 µM
TGI (NCI-H226 lung): 98.2 µM
TGI (EKVX NSCLC): > 100 µM
TGI (SF-295 CNS): > 100 µM
TGI (NCI-H23 lung): > 100 µM
TGI (BT-549 breast): > 100 µM
TGI (SK-MEL-28 melanoma): > 100 µM
TGI (SK-OV-3 ovarian): > 100 µM
TGI (HOP-62 NSCLC): 31.5 µM
